From patent publication US7863310B2, “Kinase inhibitors” (Eli Lilly and Company, priority 2004, dated 2011)

Columns and labels:
TNF-α = test: Effect on intra-articular LPS induced TNF-α in rat ankles; type: in vivo; settings: female Lewis rats
Protocol: Intra-articular injection of LPS into rat ankles induces the synthesis of TNF-α, which can be measured in synovial lavage fluid. High levels of TNF-α are detectable within 2 hours. Since the joint is the site where arthritis develops, this model can rapidly determine whether an orally administered compound has an effect on an inflammatory response in the synovium.
Six female Lewis rats (150-200 g) are place in each treatment group. The animals are given vehicle (1% NaCarboxymethylcellulose-0.25% Tween 80) or Example 6 (1 mg/kg, 3 mg/kg, 10 mg/kg, and 30 mg/kg) orally. One hour later, 10 μl LPS (10 μg) is administered intra-articularly into the right ankle of each rat, while the left ankle receives 10 μL of saline. After two hours, each ankle is lavaged with 100 μL of saline. The lavage is collected and stored at −80° C. • Group#1: Vehicle (1% NaCMC-0.25% Tween 80, 1 mL, PO) • Group#2: Example 6 (free base) (1 mg/kg, 1 mL, PO) • Group#3: Example 6 (free base) (3 mg/kg, 1 mL, PO) • Group#4: Example 6 (free base) (10 mg/kg, 1 mL, PO) • Group#5: Example 6 (free base) (30 mg/kg, 1 mL, PO)
TNF-α was measured with a commercially available ELISA kit (R&D, RTA00). […] The TMED50=3 mg/kg for the compound of Example 6 in this assay.

[1] = system: Female Lewis rats, collagen induced arthritis; test: Rat Collagen Induced Arthritis Efficacy Model; type: in vivo; settings: 30 mg/kg bid, PO, 14 days
Protocol: Female Lewis rats ((≅190 gm, Charles River Labs) are immunized with Bovine type II collagen (2 mg/ml) emulsified with an equal volume of adjuvant (aluminum hydroxide). […]. The rats are immunized with approximately […] of the emulsion intradermally on the back neat the base of the tail. All animals are re-immunized 7 days later according to the same protocol. The rats begin to develop arthritis (characterized by swell-ling and redness of one or both ankles) from 12 to 14 days after the first immunization. The rats are equally distributed into five treatment groups at the first signs of arthritis and treatment is initiated with each rat dosed bid for 14 days.
Ankle diameter is measured with calipers 5 days a week and recorded. Data is expressed as the area under the curve (AUC) generated from the composite inflammation scores and statistical analysis performed.

CS(=O)(=O)O.C[C@@H](n1c(N)nc2ccc(-c3[nH]c(-c4c(F)cccc4F)nc3-c3ccccc3)cc21)C(C)(C)C [Example 78, 6-[2-(2,6-Difluorophenyl)-5-phenyl-3H-imidazol-4-yl]-1-(1-(R)-methyl-2,2-dimethylpropyl)-1H-benzimidazol-2-ylamine methanesulfonate]
inhibition of TNF-α synthesis, as measured in the synovial lavage fluid (TNF-α; oral 1, 3, 10, 30 mg/kg, intra-articular LPS 10 μg one hour later, lavage after two hours, ELISA): dose-dependent inhibition

CC(C)Cn1c(N)nc2ccc(-c3[nH]c(-c4c(F)cccc4F)nc3-c3ccccc3)cc21 [Example 6, 1-(Isobutyl)-2-amino-6-(2-(2,6-difluorophenyl)-4-phenyl-1H-imidazol-5-yl)-1H-benzimidazole]
TMED50 (TNF-α; oral, intra-articular LPS induced TNF-α in synovial lavage fluid): 3 mg/kg
reduced inflammation (AUC of composite inflammation scores, ankle diameter) [1]: 30%
